In ChEMBL document CHEMBL5236634, “Membrane-Targeting Neolignan-Antimicrobial Peptide Mimic Conjugates to Combat Methicillin-Resistant Staphylococcus aureus (MRSA) Infections” (J Med Chem, 2022):
Values after ≈ are worked out from the molar mass of the structure shown.

Tests used:
[1] = Hemolytic activity in sheep RBC incubated for 1 hr by absorbance based analysis; format: toxicity, cell-based, Ovis aries, Erythrocyte; conditions: sheep red blood cells
Escherichia coli = test: Antibacterial activity against Escherichia coli ATCC 25922 assessed as inhibition of bacterial growth incubated for 16 to 20 hrs by CLSI based microdilution method; format: functional; conditions: time 16-20 hrs
Staphylococcus aureus = test: Antibacterial activity against Staphylococcus aureus ATCC 29213 assessed as inhibition of bacterial growth incubated for 16 to 20 hrs by CLSI based microdilution method; format: functional; conditions: time 16-20 hrs
Salmonella enterica [2] = test: Antibacterial activity against Salmonella enterica 8389 assessed as inhibition of bacterial growth incubated for 16 to 20 hrs by CLSI based microdilution method; format: functional; conditions: time 16-20 hrs
Micrococcus luteus = test: Antibacterial activity against Micrococcus luteus assessed as inhibition of bacterial growth incubated for 16 to 20 hrs by CLSI based microdilution method; format: functional; conditions: time 16-20 hrs
Salmonella enterica [3] = test: Antibacterial activity against Salmonella enterica H9812 assessed as inhibition of bacterial growth incubated for 16 to 20 hrs by CLSI based microdilution method; format: functional; conditions: time 16-20 hrs
Enterococcus faecalis = test: Antibacterial activity against Enterococcus faecalis ATCC 29212 assessed as inhibition of bacterial growth incubated for 16 to 20 hrs by CLSI based microdilution method; format: functional; conditions: time 16-20 hrs
[4] = Selectivity index, ratio of HC50 for hemolytic activity in sheep RBC to MIC for antibacterial activity against Staphylococcus aureus ATCC 29213; format: toxicity; conditions: sheep red blood cells

MIC (Escherichia coli) [µg/mL] | MIC (Staphylococcus aureus) [µg/mL] | MIC (Salmonella enterica [2]) [µg/mL] | MIC (Micrococcus luteus) [µg/mL] | MIC (Salmonella enterica [3]) [µg/mL] | MIC (Enterococcus faecalis) [µg/mL] | SMILES | HC50 at 1 h [1] [µg/mL] | selectivity ratio [4]
64 | 16 | 128 | 32 | 128 | 16 | C=CCc1cccc(Oc2ccc(C(=O)CC)cc2)c1OCCCC[N+](C)(C)CC(=O)N1CCCC1.[Br-] | 579 | 36.2
128 (≈ 453 µM) | 128 (≈ 453 µM) | > 128 | 64 (≈ 227 µM) | > 128 | 128 (≈ 453 µM) | C=CCc1cccc(Oc2ccc(C(=O)CC)cc2)c1O | 438 | 3.4
128 | 64 | > 128 | 32 | > 128 | 64 | C=CCc1cccc(Oc2ccc(C(=O)CC)cc2)c1OCC[N+](C)(C)CC(=O)N(CC)CC.[Br-] | 690 | 10.8
16 | 4 | 8 | 32 | > 128 | 8 | C=CCc1cccc(Oc2ccc(C(=O)CC)cc2)c1OCCC[N+](C)(C)CC(=O)NCCCCC.[Br-] | 690 | 172
32 | 8 | 64 | 16 | 64 | 16 | C=CCc1cccc(Oc2ccc(C(=O)CC)cc2)c1OCC[N+](C)(C)CC(=O)NCCCCC.[Br-] | 1550 | 194
64 | 8 | 32 | 16 | 64 | 16 | C=CCc1cccc(Oc2ccc(C(=O)CC)cc2)c1OCC[N+](C)(C)CC(=O)N(CCC)CCC.[Br-] | 1110 | 138
128 | 32 | > 128 | 64 | 128 | 32 | C=CCc1cccc(Oc2ccc(C(=O)CC)cc2)c1OCC[N+](C)(C)CC(=O)NCCC.[Br-] | 634 | 19.8
128 | 16 | 64 | 32 | 64 | 32 | C=CCc1cccc(Oc2ccc(C(=O)CC)cc2)c1OCCC[N+](C)(C)CC(=O)N1CCCC1.[Br-] | 526 | 32.8
32 | 4 | 64 | 16 | 128 | 8 | C=CCc1cccc(Oc2ccc(C(=O)CC)cc2)c1OCCCC[N+](C)(C)CC(=O)NCCCCC.[Br-] | 564 | 141
> 128 | 16 |  |  |  |  | CCCCCCNC(=O)C[N+](C)(C)CCOc1ccccc1Oc1ccc(C(=O)CC)cc1.[Br-] | 918 | 57.4
64 | 32 | 128 | 64 | 64 | 64 | C=CCc1cccc(Oc2ccc(C(=O)CC)cc2)c1OCC[N+](C)(C)CC(=O)NCCCC.[Br-] | 1150 | 35.9
64 | 32 | 128 | 128 | 128 | 64 | C=CCc1cccc(Oc2ccc(C(=O)CC)cc2)c1OCCCC[N+](C)(C)CC(=O)NCCC.[Br-] | 823 | 25.7
64 | 8 | 32 | 16 | 128 | 16 | C=CCc1cccc(Oc2ccc(C(=O)CC)cc2)c1OCCCC[N+](C)(C)CC(=O)NCCCC.[Br-] | 1110 | 138
> 128 | 4 |  |  |  |  | CCCCCCNC(=O)C[N+](C)(C)CCCOc1ccccc1Oc1ccc(C(=O)CC)cc1.[Br-] | 536 | 134
32 | 16 | 64 | 32 | 64 | 64 | Br.C=CCc1cccc(Oc2ccc(C(=O)CC)cc2)c1OCCCSC(=N)N | 894 | 55.8
32 | 4 | 64 | 64 | 32 | 16 | C=CCc1cccc(Oc2ccc(C(=O)CC)cc2)c1OCCCC[N+](C)(C)CC(=O)NCCCCCC.[Br-] | 642 | 160

MIC (Escherichia coli) [µg/mL] | MIC (Staphylococcus aureus) [µg/mL] | MIC (Salmonella enterica [2]) [µg/mL] | MIC (Micrococcus luteus) [µg/mL] | MIC (Salmonella enterica [3]) [µg/mL] | MIC (Enterococcus faecalis) [µg/mL] | SMILES | HC50 at 1 h [1] [µg/mL] | selectivity ratio [4]
> 128 | 32 | > 128 | 64 | 64 | 64 | C=CCc1cccc(Oc2ccc(C(=O)CC)cc2)c1OCCC[N+](C)(C)CC(=O)N1CCOCC1.[Br-] | 674 | 21.1
> 128 | 64 | > 128 | 64 | > 128 | 64 | C=CCc1cccc(Oc2ccc(C(=O)CC)cc2)c1OCCCC[N+](C)(C)CC(=O)N1CCOCC1.[Br-] | 578 | 9
64 | 32 | 64 | 128 | 32 | 32 | C=CCc1cccc(Oc2ccc(C(=O)CC)cc2)c1OCCC[N+](C)(C)CC(=O)N(CC)CC.[Br-] | 733 | 22.9
64 | 32 | 64 | 64 | 128 | 64 | Br.C=CCc1cccc(Oc2ccc(C(=O)CC)cc2)c1OCCSC(=N)N | 789 | 24.6
32 | 2 | 32 | 32 | 64 | 16 | C=CCc1cccc(Oc2ccc(C(=O)CC)cc2)c1OCCCC[N+](C)(C)CC(=O)N(CCCC)CCCC.[Br-] | 776 | 388
64 | 64 | > 128 | 64 | > 128 | 64 | C=CCc1cccc(Oc2ccc(C(=O)CC)cc2)c1OCCC[N+](C)(C)CC(=O)NCC.[Br-] | 501 | 7.8
128 (≈ 453 µM) | 128 (≈ 453 µM) | > 128 | 64 (≈ 227 µM) | 128 (≈ 453 µM) | 128 (≈ 453 µM) | C=CCc1ccc(O)c(Oc2ccc(C(=O)CC)cc2)c1 | > 640 | > 5
64 | 16 | 64 | 32 | 128 | 16 | C=CCc1cccc(Oc2ccc(C(=O)CC)cc2)c1OCCC[N+](C)(C)CC(=O)N(CCC)CCC.[Br-] | 854 | 53.3
64 | 8 | 128 | 32 | 128 | 8 | C=CCc1cccc(Oc2ccc(C(=O)CC)cc2)c1OCC[N+](C)(C)CC(=O)N(CCCC)CCCC.[Br-] | 834 | 104
64 | 64 | 64 | 64 | 32 | 64 | C=CCc1cccc(Oc2ccc(C(=O)CC)cc2)c1OCCC[N+](C)(C)CC(=O)NCCC.[Br-] | > 1280 | > 20
32 | 8 | 128 | 32 | 64 | 16 | C=CCc1cccc(Oc2ccc(C(=O)CC)cc2)c1OCCC[N+](C)(C)CC(=O)NCCCC.[Br-] | 507 | 63.3
64 | 4 | 128 | 16 | 128 | 16 | C=CCc1cccc(Oc2ccc(C(=O)CC)cc2)c1OCCC[N+](C)(C)CC(=O)N(CCCC)CCCC.[Br-] | 776 | 194
64 | 64 | 32 | 128 | 64 | 128 | C=CCc1cccc(Oc2ccc(C(=O)CC)cc2)c1OCCCC[N+](C)(C)CC(=O)NCC.[Br-] | 785 | 12.2
128 | 32 | > 128 | 32 | 64 | 64 | C=CCc1cccc(Oc2ccc(C(=O)CC)cc2)c1OCC[N+](C)(C)CC(=O)N1CCCC1.[Br-] | 543 | 17
64 | 32 | 128 | 64 | 128 | 32 | C=CCc1cccc(Oc2ccc(C(=O)CC)cc2)c1OCCCC[N+](C)(C)CC(=O)N(CCC)CCC.[Br-] | 933 | 29.1
64 | 32 | 128 | 32 | 128 | 32 | C=CCc1cccc(Oc2ccc(C(=O)CC)cc2)c1OCC[N+](C)(C)CC(=O)NCC.[Br-] | 509 | 15.9

SMILES | MIC (Escherichia coli) [µg/mL] | MIC (Staphylococcus aureus) [µg/mL] | MIC (Salmonella enterica [2]) [µg/mL] | MIC (Micrococcus luteus) [µg/mL] | MIC (Salmonella enterica [3]) [µg/mL] | MIC (Enterococcus faecalis) [µg/mL] | HC50 at 1 h [1] [µg/mL] | selectivity ratio [4]
C[C@@H](O)[C@H]1C(=O)N2C(C(=O)O)=C(S[C@@H]3CN[C@H](C(=O)N(C)C)C3)[C@H](C)[C@H]12 [MEROPENEM] | 0.125 (≈ 0.326 µM) |  | 0.125 (≈ 0.326 µM) |  | 0.125 (≈ 0.326 µM) |  |  | 
